# Reference: patent US11877574B2, “Herbicidal oil dispersion and method” (Arysta LifeScience Inc., priority 2018, dated 2024)
# What was measured:
# [1] = Active ingredient assay and recovery on storage (Table 2); type: physicochemical
# [2] = Active ingredient assay on storage, SCB239-12 (Table 3); type: physicochemical
smiles,measurement,setting,value
"CCCCC(CC)COC(=O)COc1ccc(Cl)cc1C (stereo not drawn) [MCPA, 2-ethylhexyl 2-(4-chloro-2-methylphenoxy) acetate]",Assay (% w/w),"[1]; 1 month storage, 0° C.",34.61 % w/w
same,Assay (% w/w),"[1]; 1 month storage, 40° C.",34.69 % w/w
same,Assay (% w/w),"[1]; 1 month storage, T/C",34.68 % w/w
same,Assay (% w/w),"[1]; 1 month storage, −10° C.",34.65 % w/w
same,Assay (% w/w),"[1]; 2 month storage, 0° C.",34.82 % w/w
same,Assay (% w/w),"[1]; 2 month storage, 40° C.",34.90 % w/w
same,Assay (% w/w),"[1]; 2 month storage, T/C",34.94 % w/w
same,Assay (% w/w),"[1]; 2 month storage, −10° C.",34.92 % w/w
same,Assay (% w/w),"[1]; 2 wks, 54° C.",35.05 % w/w
same,Assay (% w/w),"[1]; 3 month storage, 0° C.",35.25 % w/w
same,Assay (% w/w),"[1]; 3 month storage, 25° C.",35.23 % w/w
same,Assay (% w/w),"[1]; 3 month storage, 40° C.",35.28 % w/w
same,Assay (% w/w),"[1]; 3 month storage, T/C",35.30 % w/w
same,Assay (% w/w),"[1]; 3 month storage, −10° C.",35.36 % w/w
same,Assay (% w/w),"[1]; 6 month storage, 25° C.",34.14 % w/w
same,Assay (% w/w),"[1]; 9 month storage, 25° C.",34.73 % w/w
same,Assay (% w/w),"[1]; 12 month storage, 25° C.",34.84 % w/w
same,Assay (% w/w),[1]; F/T Sample,35.06 % w/w
same,Assay (% w/w),[1]; initial,35.01 % w/w
same,Assay (% w/w),"[2]; 1 month storage, 0° C.",33.65 % w/w
same,Recovery of active ingredient (% of initial assay),"[2]; 1 month storage, 0° C.",99.88 % w/w
same,Assay (% w/w),"[2]; 1 month storage, 40° C.",33.61 % w/w
same,Recovery of active ingredient (% of initial assay),"[2]; 1 month storage, 40° C.",99.77 % w/w
same,Assay (% w/w),"[2]; 1 month storage, T/C",33.64 % w/w
same,Recovery of active ingredient (% of initial assay),"[2]; 1 month storage, T/C",99.85 % w/w
same,Assay (% w/w),"[2]; 2 month storage, 0° C.",34.07 % w/w
same,Recovery of active ingredient (% of initial assay),"[2]; 2 month storage, 0° C.",101.15 % w/w
same,Assay (% w/w),"[2]; 2 month storage, 40° C.",33.84 % w/w
same,Recovery of active ingredient (% of initial assay),"[2]; 2 month storage, 40° C.",100.47 % w/w
same,Assay (% w/w),"[2]; 2 month storage, T/C",33.97 % w/w
same,Recovery of active ingredient (% of initial assay),"[2]; 2 month storage, T/C",100.84 % w/w
same,Assay (% w/w),"[2]; 2 wks, 54° C.",34.24 % w/w
same,Recovery of active ingredient (% of initial assay),"[2]; 2 wks, 54° C.",101.65 % w/w
same,Assay (% w/w),"[2]; 3 month storage, 0° C.",33.76 % w/w
same,Recovery of active ingredient (% of initial assay),"[2]; 3 month storage, 0° C.",100.21 % w/w
same,Assay (% w/w),"[2]; 3 month storage, 25° C.",33.64 % w/w
same,Recovery of active ingredient (% of initial assay),"[2]; 3 month storage, 25° C.",99.86 % w/w
same,Assay (% w/w),"[2]; 3 month storage, 40° C.",33.61 % w/w
same,Recovery of active ingredient (% of initial assay),"[2]; 3 month storage, 40° C.",99.76 % w/w
same,Assay (% w/w),"[2]; 3 month storage, −10° C.",33.41 % w/w
same,Recovery of active ingredient (% of initial assay),"[2]; 3 month storage, −10° C.",99.20 % w/w
same,Assay (% w/w),[2]; F/T sample,34.30 % w/w
same,Recovery of active ingredient (% of initial assay),[2]; F/T sample,101.84 % w/w
same,Assay (% w/w),[2]; Initial,33.69 % w/w
"CCCCCCCC(=O)Oc1c(Br)cc(C#N)cc1Br [Bromoxynil, Bromoxynil Octanoate]",Assay (% w/w),"[1]; 1 month storage, 0° C.",31.04 % w/w
same,Assay (% w/w),"[1]; 1 month storage, 40° C.",31.46 % w/w
same,Assay (% w/w),"[1]; 1 month storage, T/C",31.27 % w/w
same,Assay (% w/w),"[1]; 1 month storage, −10° C.",31.44 % w/w
same,Assay (% w/w),"[1]; 2 month storage, 0° C.",31.30 % w/w
same,Assay (% w/w),"[1]; 2 month storage, 40° C.",30.78 % w/w
same,Assay (% w/w),"[1]; 2 month storage, T/C",30.99 % w/w
same,Assay (% w/w),"[1]; 2 month storage, −10° C.",31.34 % w/w
same,Assay (% w/w),"[1]; 2 wks, 54° C.",31.02 % w/w
same,Assay (% w/w),"[1]; 3 month storage, 0° C.",32.81 % w/w
same,Assay (% w/w),"[1]; 3 month storage, 25° C.",32.57 % w/w
same,Assay (% w/w),"[1]; 3 month storage, 40° C.",32.17 % w/w
same,Assay (% w/w),"[1]; 3 month storage, T/C",32.54 % w/w
same,Assay (% w/w),"[1]; 3 month storage, −10° C.",33.06 % w/w
same,Assay (% w/w),"[1]; 6 month storage, 25° C.",31.38 % w/w
same,Assay (% w/w),"[1]; 9 month storage, 25° C.",32.11 % w/w
same,Assay (% w/w),"[1]; 12 month storage, 25° C.",31.19 % w/w
same,Assay (% w/w),[1]; F/T Sample,31.42 % w/w
same,Assay (% w/w),[1]; initial,31.32 % w/w
same,Assay (% w/w),"[2]; 1 month storage, 0° C.",31.08 % w/w
same,Recovery of active ingredient (% of initial assay),"[2]; 1 month storage, 0° C.",99.56 % w/w
same,Assay (% w/w),"[2]; 1 month storage, 40° C.",30.65 % w/w
same,Recovery of active ingredient (% of initial assay),"[2]; 1 month storage, 40° C.",98.17 % w/w
same,Assay (% w/w),"[2]; 1 month storage, T/C",30.89 % w/w
same,Recovery of active ingredient (% of initial assay),"[2]; 1 month storage, T/C",98.95 % w/w
same,Assay (% w/w),"[2]; 2 month storage, 0° C.",30.30 % w/w
same,Recovery of active ingredient (% of initial assay),"[2]; 2 month storage, 0° C.",97.06 % w/w
same,Assay (% w/w),"[2]; 2 month storage, 40° C.",29.43 % w/w
same,Recovery of active ingredient (% of initial assay),"[2]; 2 month storage, 40° C.",94.28 % w/w
same,Assay (% w/w),"[2]; 2 month storage, T/C",29.88 % w/w
same,Recovery of active ingredient (% of initial assay),"[2]; 2 month storage, T/C",95.73 % w/w
same,Assay (% w/w),"[2]; 2 wks, 54° C.",30.55 % w/w
same,Recovery of active ingredient (% of initial assay),"[2]; 2 wks, 54° C.",97.86 % w/w
same,Assay (% w/w),"[2]; 3 month storage, 0° C.",30.06 % w/w
same,Recovery of active ingredient (% of initial assay),"[2]; 3 month storage, 0° C.",96.31 % w/w
same,Assay (% w/w),"[2]; 3 month storage, 25° C.",30.03 % w/w
same,Recovery of active ingredient (% of initial assay),"[2]; 3 month storage, 25° C.",96.21 % w/w
same,Assay (% w/w),"[2]; 3 month storage, 40° C.",29.37 % w/w
same,Recovery of active ingredient (% of initial assay),"[2]; 3 month storage, 40° C.",94.07 % w/w
same,Assay (% w/w),"[2]; 3 month storage, −10° C.",30.49 % w/w
same,Recovery of active ingredient (% of initial assay),"[2]; 3 month storage, −10° C.",97.68 % w/w
same,Assay (% w/w),[2]; F/T sample,31.13 % w/w
same,Recovery of active ingredient (% of initial assay),[2]; F/T sample,99.73 % w/w
same,Assay (% w/w),[2]; Initial,31.22 % w/w
"CCCCCC(C)OC(=O)COc1ccc(Cl)c2cccnc12 (stereo not drawn) [cloquintocet, Cloquintocet Mexyl]",Assay (% w/w),"[1]; 1 month storage, 0° C.",0.41 % w/w
same,Assay (% w/w),"[1]; 1 month storage, 40° C.",0.41 % w/w
same,Assay (% w/w),"[1]; 1 month storage, T/C",0.41 % w/w
same,Assay (% w/w),"[1]; 1 month storage, −10° C.",0.41 % w/w
same,Assay (% w/w),"[1]; 2 month storage, 0° C.",0.41 % w/w
same,Assay (% w/w),"[1]; 2 month storage, 40° C.",0.40 % w/w
same,Assay (% w/w),"[1]; 2 month storage, T/C",0.40 % w/w
same,Assay (% w/w),"[1]; 2 month storage, −10° C.",0.41 % w/w
same,Assay (% w/w),"[1]; 2 wks, 54° C.",0.39 % w/w
same,Assay (% w/w),"[1]; 3 month storage, 0° C.",0.41 % w/w
same,Assay (% w/w),"[1]; 3 month storage, 25° C.",0.41 % w/w
same,Assay (% w/w),"[1]; 3 month storage, 40° C.",0.40 % w/w
same,Assay (% w/w),"[1]; 3 month storage, T/C",0.41 % w/w
same,Assay (% w/w),"[1]; 3 month storage, −10° C.",0.42 % w/w
same,Assay (% w/w),"[1]; 6 month storage, 25° C.",0.39 % w/w
same,Assay (% w/w),"[1]; 9 month storage, 25° C.",0.39 % w/w
same,Assay (% w/w),"[1]; 12 month storage, 25° C.",0.39 % w/w
same,Assay (% w/w),[1]; F/T Sample,0.41 % w/w
same,Assay (% w/w),[1]; initial,0.41 % w/w
same,Assay (% w/w),"[2]; 1 month storage, 0° C.",0.35 % w/w
same,Recovery of active ingredient (% of initial assay),"[2]; 1 month storage, 0° C.",100.15 % w/w
same,Assay (% w/w),"[2]; 1 month storage, 40° C.",0.35 % w/w
same,Recovery of active ingredient (% of initial assay),"[2]; 1 month storage, 40° C.",99.58 % w/w
same,Assay (% w/w),"[2]; 1 month storage, T/C",0.35 % w/w
same,Recovery of active ingredient (% of initial assay),"[2]; 1 month storage, T/C",99.83 % w/w
same,Assay (% w/w),"[2]; 2 month storage, 0° C.",0.36 % w/w
same,Recovery of active ingredient (% of initial assay),"[2]; 2 month storage, 0° C.",100.12 % w/w
same,Assay (% w/w),"[2]; 2 month storage, 40° C.",0.35 % w/w
same,Recovery of active ingredient (% of initial assay),"[2]; 2 month storage, 40° C.",100.02 % w/w
same,Assay (% w/w),"[2]; 2 month storage, T/C",0.36 % w/w
same,Recovery of active ingredient (% of initial assay),"[2]; 2 month storage, T/C",101.08 % w/w
same,Assay (% w/w),"[2]; 2 wks, 54° C.",0.35 % w/w
same,Recovery of active ingredient (% of initial assay),"[2]; 2 wks, 54° C.",100.70 % w/w
same,Assay (% w/w),"[2]; 3 month storage, 0° C.",0.35 % w/w
same,Recovery of active ingredient (% of initial assay),"[2]; 3 month storage, 0° C.",100.75 % w/w
same,Assay (% w/w),"[2]; 3 month storage, 25° C.",0.35 % w/w
same,Recovery of active ingredient (% of initial assay),"[2]; 3 month storage, 25° C.",100.17 % w/w
same,Assay (% w/w),"[2]; 3 month storage, 40° C.",0.35 % w/w
same,Recovery of active ingredient (% of initial assay),"[2]; 3 month storage, 40° C.",99.39 % w/w
same,Assay (% w/w),"[2]; 3 month storage, −10° C.",0.35 % w/w
same,Recovery of active ingredient (% of initial assay),"[2]; 3 month storage, −10° C.",99.59 % w/w
same,Assay (% w/w),[2]; F/T sample,0.36 % w/w
same,Recovery of active ingredient (% of initial assay),[2]; F/T sample,101.49 % w/w
same,Assay (% w/w),[2]; Initial,0.35 % w/w
